The values below come from ChEMBL document CHEMBL3507680, “University of Dundee, Gates Library screen for HepG2 cell viability”.

Structures are written as SMILES.

This series can be described thus: Human HepG2 cell viability assay in 384 well format. The arrangement: dose 125 nL, time 70.5 hour; cytotoxicity at 70.5 h: concentration not given beside the values. It counts as toxicity, cell-based. To be noted: HepG2 cells, read-out: Inhibition.
`CCC(C)C(=O)NCc1c(C)nn(C)c1N1CCCN(C)CC1` (stereo not drawn): the cytotoxicity at 70.5 h amounted to 1.79%. As to `CCn1cncc1Cn1cccc(C(F)(F)F)c1=O`, the cytotoxicity at 70.5 h amounted to 2.51%. The value for `O=c1n(CC2CC2)nc(C2CCNCC2)n1Cc1ccccc1` was 9.69%; that for `O=C(O)c1cc(-c2cccnc2)cc(S(=O)(=O)NCc2ccccn2)c1` was -5.41%; that for `Cc1nn(C)c(C)c1CCC(=O)N(C)Cc1ccc(C#N)cc1` was 1.66%.

With `COCC(C)N(C)C(=O)c1ccc2nncn2c1` (stereo not drawn), the cytotoxicity at 70.5 h was -2.4%. As for `CCCS(=O)(=O)N1CCO[C@H]2[C@H](OCc3ccccn3)CC[C@@H]21`, the figure is -1.48%; as for `COC(=O)c1ccc(N(C)C2CCC2)nn1`, -5.28%; as for `O=C(CN1CCc2c(ncn2C2CC2)C1)NC1CC1`, -23.8%. The value for `Cc1cc(C(=O)N2CCC3(CC(=O)NC3=O)C2)c(-c2ccccc2)o1` (stereo not drawn) was 17.4%. Consider `CCN1CC2(CC1=O)CN(C(C)=O)CCN(C(=O)NC(C)C)C2` (stereo not drawn), for which the cytotoxicity at 70.5 h was -8.93%.

As to `Cc1nc(CN2C[C@@H]3CN(C(=O)[C@H]4CCCO4)C[C@@H]3C2=O)cs1`, the cytotoxicity at 70.5 h was -8.74%. `COCC(C)(C#N)NC(=O)c1cn(-c2cccc(Cl)c2F)nn1` (stereo not drawn): the cytotoxicity at 70.5 h was -10.4%. Turning to `COc1ccc(COCC(O)CNC(=O)c2cc(C)no2)cc1` (stereo not drawn), the cytotoxicity at 70.5 h was -4.49%. For the molecule `Cc1cccc(Nc2cc(C)nc(C3CCN(C(C)C)C3)n2)n1` (stereo not drawn), the cytotoxicity at 70.5 h stood at 15.7%. As for `CC(=O)N1CC2C[C@]2(NC(=O)c2ccco2)C1` (stereo partly drawn), the figure is 18.4%; as for `COc1ccc(C(=O)Nc2ccc3c(c2)C(=O)NC3)cc1Br`, -5.4%. The value for `CCCS(=O)(=O)NCCc1ncc(C)s1` was -11.1%; that for `COC(=O)CNC(=O)c1cccc(C(=O)N(C)c2ccccc2)c1` was 30.5%. The value for `COc1ccc(C(=O)Nc2ccccc2-c2ccc(=O)n(C)n2)nn1` was 1.94%. As for `O=C(C1CCCC1)N1CCCC2(CCN(c3cnccn3)CC2)C1`, the cytotoxicity at 70.5 h is -8.23%. The value for `CCC(=O)Nc1cc(Br)cnc1OCC(F)(F)F` was -8.98%. As for `O=C(NCCCc1nnc2ccccn12)c1ccccc1C1CCNC1` (stereo not drawn), the figure is -0.698%; as for `CC(C)CN1CCCC1c1ccc(C(=O)Nc2cccnc2)s1` (stereo not drawn), 0.0684%; as for `CC(CNCc1ccc(Cl)c(Cl)c1)Oc1ccccn1` (stereo not drawn), -1.69%. The value for `O=c1[nH]nc2c(S(=O)(=O)N3CCCCCC3)cccn12` was -7.77%. With `CC(O)(CN1CCC(O)CC1)c1cccc(C(F)(F)F)c1` (stereo not drawn), the cytotoxicity at 70.5 h was -14.5%. As for `O=C(C1CSc2ccccc2O1)N1CCN(CCO)CC1` (stereo not drawn), the figure is -14.3%; as for `CC(=O)N1CCCCC[C@@H]2[C@@H]1[C@H](c1cccc(F)c1)CN2C(=O)C1CC1`, -3.31%. The value for `CCCS(=O)(=O)c1ncc(CN2CCC(CO)CC2)n1CC1CCCO1` (stereo not drawn) was -4.07%; that for `Cc1c[nH]c(C2CCCN(Cc3cccc(C(=O)O)c3)C2)n1` (stereo not drawn) was -4.03%. Consider `Cc1cc(F)ccc1C(=O)N1CCN(C)C2(CCC(=O)N(C)CC2)C1` (stereo not drawn), for which the cytotoxicity at 70.5 h was -9.21%.

Turning to `O=C1CCCN1Cc1ncn2c1CN(C(=O)N1CCCC1)CCC2`, the cytotoxicity at 70.5 h was 0.134%.

Consider `CC1CC(=O)c2cnc3nc(N4CCOCC4)[nH]c(=O)c3c2C1` (stereo not drawn), for which the cytotoxicity at 70.5 h is -15.8%. The value for `NC(=O)C1CCN(S(=O)(=O)c2cnn(-c3ccccc3)c2)C1` (stereo not drawn) was -3.49%; that for `CSCc1noc(CNC(=O)c2cc(C)c(C)[nH]c2=O)n1` was -5.2%; that for `Cc1ccc2nc(CNc3ccccc3C(=O)NC3CC3)cn2c1` was -4.35%.

For the molecule `O=C(O)c1ccc(S(=O)(=O)Nc2ccccc2F)c(F)c1`, the cytotoxicity at 70.5 h was -11%.

`CN1CC(=O)N(c2ccsc2)CC12CCN(C(=O)CC1CCCC1)C2` (stereo not drawn): the cytotoxicity at 70.5 h was -0.558%.

As for `O=C(NC1CCCC1)[C@@H]1C[C@@H]2CCN(Cc3ccoc3)C[C@H]2O1`, the cytotoxicity at 70.5 h is -10%.

For the molecule `CC(C)N1CCO[C@H]2CN(S(=O)(=O)c3ccc(C#N)cc3)C[C@H]21`, the cytotoxicity at 70.5 h is -11.6%.

`O=C(NCc1ccccn1)C1CN(c2nc3ccccc3s2)CCN1` (stereo not drawn): the cytotoxicity at 70.5 h was -8.77%. As for `CN(CC(F)(F)F)C(=O)CNC(=O)N1CCC(N2CCCC2)C1` (stereo not drawn), the figure is -9.53%; as for `COCC(=O)Nc1ccnn1-c1ccc(Cl)cc1`, 3.64%.

As to `O=C(c1ccno1)N1CC[C@@H]2O[C@H](COCCN3CCCC3)CC[C@@H]21`, the cytotoxicity at 70.5 h stood at 9.33%. The value for `CN1CCCCC1c1cncc(Cl)n1` (stereo not drawn) was -0.934%; that for `COc1ccc(C[C@H]2CN(Cc3ccoc3)CC[C@H]2OC)cc1` was -0.279%; that for `O=C1C[C@H]2[C@@H](CCN2C(=O)c2ccccc2)N1CCN1CCOCC1` was -5.41%. As for `CN(CCCO)Cc1cc(Cl)ccc1OCC(O)CN1CCCCCC1` (stereo not drawn), the figure is -7.24%; as for `CN(C)c1cc(C2CCCN(Cc3cnn(C)c3)C2)ccn1` (stereo not drawn), -0.665%. As for `CCCc1cc(C(=O)N2CCC3(CCCN(CCOC)C3=O)C2)cs1` (stereo not drawn), the figure is -7.15%; as for `Cc1cc(NC(=O)Cc2ccc3c(c2)OCO3)n(C)n1`, -0.417%.

As for `CCN1CC(CN(C)Cc2nc(-c3ccc(F)cc3)oc2C)CC1=O` (stereo not drawn), the cytotoxicity at 70.5 h came out at 4.29%.

For the molecule `CCC[C@H]1CN(Cc2ccc(N(C)C)nc2)C[C@@H]1NS(=O)(=O)CC`, the cytotoxicity at 70.5 h is -1.04%. `CC(C)Nc1nc(-c2ccccc2)nc2c1CCN(C(=O)C1CC1)CC2`: the cytotoxicity at 70.5 h was -9.57%. The value for `CC(C)OCCN(C)C(C)c1cccc(S(N)(=O)=O)c1` (stereo not drawn) was 22.5%; that for `CO[C@@H]1CC[C@H]2[C@H]1OCCN2C(=O)c1ccc(C)o1` was 46.9%. The value for `COc1ncccc1CN1C[C@@H]2C[C@@H](C(=O)NCC3CC3)N(C)[C@@H]2C1` was -12.2%; that for `O=C(NC[C@@H]1CCCN1)c1cc(COc2cccc(C(F)(F)F)c2)[nH]n1` was -1.5%; that for `Cn1cnc(S(=O)(=O)N2CC3(CCN(CC4CC4)C3)C2)c1` was 14.6%. The value for `CCc1ccc(OCC(O)CN2CCN(S(C)(=O)=O)CC2)cc1` (stereo not drawn) was -5.82%; that for `COCCCNC(=O)N1CCCC(c2nncn2C)C1` (stereo not drawn) was -12.4%. Turning to `CN(C)C(=O)CNC(=O)c1ccc(Cl)cc1F`, the cytotoxicity at 70.5 h was determined as 45.3%. As for `O=C(COc1ccc(Cl)cc1Cl)N1CCCSCC1CN1CCOCC1` (stereo not drawn), the figure is 0.222%; as for `COc1ccc(Cc2nnc3n2N=C(C(C)(C)C)CS3)cc1`, 8.14%; as for `O=C(C(NCc1cccc(F)c1F)c1ccccc1)N1CCOCC1` (stereo not drawn), -1.89%. The value for `COCC(C)NC(=O)N1CCN(S(C)(=O)=O)CC1` (stereo not drawn) was -2.46%; that for `CC(C)[C@H]1CN(Cc2c[nH]cn2)C[C@@H]1NC(=O)CC1CCC1` was -6.54%. As for `CCc1nc(CN2CCCN(C(=O)COC(C)C)CC2)cs1`, the figure is 2.07%; as for `Cc1noc([C@H]2C[C@H]3OCC[C@H]3N(S(C)(=O)=O)C2)n1`, 3.17%. As for `Cn1nc(C(=O)NCc2cccc(Cn3ccnc3)c2)ccc1=O`, the cytotoxicity at 70.5 h amounted to 3.47%.

On to `COCc1noc(C2(c3ccc(F)cc3)CCOCC2)n1`, for which the cytotoxicity at 70.5 h was 28.8%.

On to `O=C1CN(C(=O)C2CCCCC2)CC(O)CN1Cc1ccco1` (stereo not drawn), for which the cytotoxicity at 70.5 h was -4.93%.

Regarding `CC(C(=O)NCCN1CCCCCC1)n1cncn1` (stereo not drawn), the cytotoxicity at 70.5 h is -0.492%. The value for `O=C(NCC1CCOC1)c1csc(-c2ccco2)n1` (stereo not drawn) was 21.2%; that for `COCCN1CCN(C(=O)c2ccc(C)cc2OC)[C@H]2CS(=O)(=O)C[C@H]21` was -11.7%. As for `O=C1CC(C2CCCCC2)c2c(n(C3CCCC3)[nH]c2=O)N1` (stereo not drawn), the figure is 2.99%; as for `NC(=O)c1cccc(CC2CCN(C(=O)CO)C2)c1` (stereo not drawn), -3%; as for `Cn1cccc1C(=O)N1CCC2(CC1)COC(COc1ccccn1)C2` (stereo not drawn), -6.63%. The value for `CCn1nc(C)c2ccn(CC(=O)NCCN3CCCCC3)c(=O)c21` was -5.13%; that for `Cn1cnc2c1CCN(CC(O)c1ccc(S(C)(=O)=O)cc1)C2` (stereo not drawn) was -8.26%; that for `CC(C)Oc1ccccc1OCCN1C(=O)CCNC1=O` was 22.4%. Take `Cc1n[nH]cc1CNC(=O)CCCc1cccs1`: the cytotoxicity at 70.5 h was -3.35%. The value for `Cc1cnccc1NCCNC1CCN(CC(C)C)CC1` was 2.02%. The value for `CCc1nnsc1C(=O)N1CCCC1c1c(C)nn(C)c1OC` (stereo not drawn) was 13.9%; that for `Nc1ccc(C(=O)N2CCCC(c3nccn3Cc3cscn3)C2)cn1` (stereo not drawn) was -3.06%.

As to `CCOc1cc(NC(=O)NCCn2cnnc2CC)ccc1C`, the cytotoxicity at 70.5 h is -6.28%. The value for `Cc1csc2cc(C(=O)NC3CCCC3)cnc12` was 3.45%. With `COc1ccccc1CNC(=O)CN(C)C(C)c1ccon1` (stereo not drawn), the cytotoxicity at 70.5 h was -18.5%. The value for `CCOc1ncccc1C(=O)NCCN(CC)C1CC1` was 0.543%.

In the case of `CC1CN(C)CCN1CC(=O)NCCOc1cccc(F)c1` (stereo not drawn), the cytotoxicity at 70.5 h was -1.27%. As for `Cc1ccc(C(=O)NCCCS(=O)(=O)c2ccccc2)c(=O)[nH]1`, the figure is -4.85%; as for `Cc1n[nH]c(C)c1C1COCCN1C(=O)c1ccc2c(c1)CCO2` (stereo not drawn), -8%. As for `CCc1nc(CN(C)C(=O)NC(C)c2cccc(NC(C)=O)c2)cs1` (stereo not drawn), the figure is 12.9%; as for `CNC(=O)NC(=O)CN1CCCC(Cc2ccccc2OC)C1` (stereo not drawn), -6.62%.

Regarding `Cc1cc(F)c2c(c1)CCCN2Cc1nc2c(cnn2C)c(=O)[nH]1`, the cytotoxicity at 70.5 h was -28.1%. With `O=C(c1ccc(Br)o1)N1CCCC(n2cncn2)C1` (stereo not drawn), the cytotoxicity at 70.5 h is -3.18%. The value for `C1CC(CN2CCOCC3(CCN(C4CCOCC4)C3)C2)CCO1` (stereo not drawn) was -6.07%.
